Common to all, as to format: cell-based
Experiment [1] has as its system T1, Lysosomal acid glucosylceramidase (Homo sapiens), P04062 [N409S].
T1 sequence (whole entry): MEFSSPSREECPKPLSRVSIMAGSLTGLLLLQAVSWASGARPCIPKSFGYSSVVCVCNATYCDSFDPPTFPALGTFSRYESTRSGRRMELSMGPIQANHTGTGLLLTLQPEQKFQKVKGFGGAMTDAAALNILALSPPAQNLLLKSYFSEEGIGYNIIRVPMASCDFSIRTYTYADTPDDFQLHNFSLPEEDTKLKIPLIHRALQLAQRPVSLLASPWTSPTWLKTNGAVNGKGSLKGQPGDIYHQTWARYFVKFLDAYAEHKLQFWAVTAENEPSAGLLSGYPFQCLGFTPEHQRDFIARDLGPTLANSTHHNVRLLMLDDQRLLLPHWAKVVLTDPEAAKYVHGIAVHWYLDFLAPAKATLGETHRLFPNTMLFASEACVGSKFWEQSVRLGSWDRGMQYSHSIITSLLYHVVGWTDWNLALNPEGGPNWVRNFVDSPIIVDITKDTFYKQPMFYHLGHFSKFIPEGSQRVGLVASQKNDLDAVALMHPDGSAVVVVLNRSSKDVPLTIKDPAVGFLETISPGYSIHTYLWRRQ
Briefly: Chaperone activity at GCase N370S GBA mutant in patient derived fibroblast cells using 4-methylumbelliferyl-beta-D-glucopyranoside as substrate incubated for 5 days by fluorescence based analysis relative to control. The note with it: time 5.0 day.

Experiment [2] addresses T2, Lysosomal acid glucosylceramidase (Homo sapiens, UniProt P04062, N409S). Briefly: Inhibition of GCase N370S GBA mutant in patient derived fibroblast cells using 4-methylumbelliferyl-beta-D-glucopyranoside as substrate incubated for 5 days by fluorescence based analysis.
Experiment [3] concerns the target T2, Lysosomal acid glucosylceramidase. In words: Chaperone activity at GCase N370S GBA mutant in patient derived fibroblast cells using 4-methylumbelliferyl-beta-D-glucopyranoside as substrate incubated for 5 days by fluorescence based analysis.
The subject of experiment [4] is T1, Lysosomal acid glucosylceramidase (Homo sapiens), P04062 [N409S]. Briefly: Inhibition of GCase N370S GBA mutant in patient derived fibroblast cells using 4-methylumbelliferyl-beta-D-glucopyranoside as substrate incubated for 5 days by fluorescence based analysis relative to control. The note with it: time 5.0 day.

Structures are written as SMILES. Activity calls are given as the source filed them. The rule behind the calls is not given here.

As a reminder, the Emax is the greatest response seen or fitted, relative to the assay's reference. For orientation: IC50 means the concentration that gives 50% inhibition. Broadly, the EC50 is the midpoint of the concentration-response curve.

On to `Cc1n[nH]c2c1[C@H](O)[C@@H](n1nnc3ccccc31)[C@H](c1ccccc1Cl)N2`, for which the Emax entry in experiment [1] and in experiment [4] was “inactive” each time. The IC50 result in experiment [2] (fibroblast) is given as “Not Active”. For the same compound, the EC50 entry in experiment [3] (fibroblast) is “Not Active”.

Regarding `Cc1n[nH]c2c1[C@H](O)[C@@H](n1nnc3ccccc31)[C@H](c1ccccc1)N2`, the Emax result in experiment [1] and in experiment [4] was “inactive” each time. The IC50 entry in experiment [2] (fibroblast) is listed as “Not Active”. Moreover, the EC50 entry in experiment [3] (fibroblast) is reported as “Not Active”.

With `Cc1n[nH]c2c1[C@H](O)[C@@H](n1nnc3ccccc31)[C@H](c1ccccc1Br)N2`, in experiment [1], the Emax entry is “inactive”. In addition, in experiment [3] (fibroblast), the EC50 entry is reported as “Not Active”.

On to `Cc1n[nH]c2c1[C@@H](O)[C@H](n1nnc3ccccc31)[C@@H](c1ccccc1)N2`, for which the results for the Emax in experiment [1] and in experiment [4] were 137% and 95%, respectively.

For `Cc1n[nH]c2c1[C@@H](O)[C@H](n1nnc3ccccc31)[C@@H](c1ccccc1Br)N2`, the Emax is 170% in experiment [1] and 101% in experiment [4].

For the compound `Cc1n[nH]c2c1[C@@H](O)[C@H](n1nnc3ccccc31)[C@@H](c1ccccc1Cl)N2`, the Emax amounted to 163% in experiment [1] and 85% in experiment [4].

Turning to `OC[C@H]1CNC[C@@H](O)[C@@H]1O`, the Emax in experiment [1] and in experiment [4] was 103% throughout.

In the case of `O[C@@H]1c2c(-c3ccccc3)n[nH]c2N[C@H](c2ccccc2Cl)[C@H]1n1nnc2ccccc21` (racemic), the Emax entry in experiment [1] is “inactive”. Besides, the EC50 entry in experiment [3] (fibroblast) is “Not Active”.

As to `Cc1n[nH]c2c1[C@@H](O)[C@H](n1nnc3ccccc31)[C@@H](c1ccccc1C(F)(F)F)N2` (racemic), the Emax in experiment [1] amounted to 160%; in experiment [4], 103%. Further, the IC50 in experiment [2] (read-out: IC50) was determined as 1100 nM. Further, the EC50 in experiment [3] (read-out: EC50) was determined as 470 nM.

For the compound `Cc1cccc([C@H]2Nc3[nH]nc(C)c3[C@@H](O)[C@@H]2n2nnc3ccccc32)c1` (racemic), the Emax in experiment [1] worked out at 158%. In experiment [3] (read-out: EC50), the EC50 worked out at 1100 nM.

In the case of `Cc1n[nH]c2c1[C@@H](O)[C@H](n1nnc3ccccc31)[C@@H](c1ccccc1Br)N2` (racemic) [listing 1 of 2 here], the EC50 in experiment [3] (read-out: EC50) is 200 nM.

`Cc1ccc([C@H]2Nc3[nH]nc(C)c3[C@@H](O)[C@@H]2n2nnc3ccccc32)cc1` (racemic): the Emax in experiment [1] is 157%. In experiment [3] (read-out: EC50), the EC50 stood at 1100 nM.

In experiment [1], `Cc1n[nH]c2c1[C@@H](O)[C@H](n1nnc3ccccc31)[C@@H](c1cccc(Cl)c1Cl)N2` (racemic) had an Emax of 140%. In experiment [3] (read-out: EC50), the EC50 was found to be 140 nM.

For the compound `O[C@@H]1c2cn[nH]c2N[C@H](c2ccccc2)[C@H]1n1nnc2ccccc21` (racemic), in experiment [1], the maximal response (Emax) was greater than 40%. Besides, the EC50 in experiment [3] (read-out: EC50) was greater than 16000 nM.

Turning to `O[C@@H]1c2ccccc2N[C@H](c2ccccc2)[C@H]1n1nnc2ccccc21` (racemic), the Emax entry in experiment [1] was “inactive”. Besides, the EC50 entry in experiment [3] (fibroblast) is recorded as “Not Active”.

`O[C@@H]1c2cnccc2N[C@H](c2ccccc2Cl)[C@H]1n1nnc2ccccc21` (racemic): in experiment [1], the Emax is greater than 239%. In addition, in experiment [3] (read-out: EC50), the EC50 is greater than 16000 nM.

For `Cc1n[nH]c2c1[C@@H](O)[C@H](n1nnc3ccccc31)[C@@H](c1ccccc1Cl)N2` (racemic) [listing 1 of 2 here], the EC50 in experiment [3] (read-out: EC50) was determined as 140 nM.

`O[C@@H]1c2c(C3CCCC3)n[nH]c2N[C@H](c2ccccc2)[C@H]1n1nnc2ccccc21` (racemic): the Emax result in experiment [1] is “inactive”. The EC50 entry in experiment [3] (fibroblast) was “Not Active”.

As for `COCc1n[nH]c2c1[C@@H](O)[C@H](n1nnc3ccccc31)[C@@H](c1ccccc1)N2` (racemic), in experiment [1], the Emax entry was “inactive”. For the same compound, in experiment [3] (fibroblast), the EC50 entry was “Not Active”.

Regarding `Cc1n[nH]c2c1[C@@H](O)[C@H](n1nnc3ccccc31)[C@@H](C1CCCCCC1)N2` (racemic), in experiment [1], the Emax came out at 170%. Besides, the EC50 in experiment [3] (read-out: EC50) turned out to be 230 nM.

For the compound `Cc1n[nH]c2c1[C@@H](O)[C@H](n1nnc3ccccc31)[C@@H](c1ccccc1)N2` (racemic) [listing 1 of 2 here], the EC50 in experiment [3] (read-out: EC50) stood at 1400 nM.

In the case of `COc1ccccc1[C@H]1Nc2[nH]nc(C)c2[C@@H](O)[C@@H]1n1nnc2ccccc21` (racemic), the Emax in experiment [1] was found to be 145%. Also, the EC50 in experiment [3] (read-out: EC50) stood at 3300 nM.

In experiment [1], `Cc1cccc([C@H]2Nc3[nH]nc(C)c3[C@@H](O)[C@@H]2n2nnc3ccccc32)c1Cl` (racemic) yielded an Emax of 147%. In experiment [3] (read-out: EC50), the EC50 is 150 nM.

`Cc1n[nH]c2c1[C@@H](O)[C@H](n1nnc3ccccc31)[C@@H](C1CCOCC1)N2` (racemic): the Emax in experiment [1] is greater than 65%. Moreover, the EC50 in experiment [3] (read-out: EC50) is greater than 16000 nM.

In the case of `Cc1n[nH]c2c1[C@@H](O)[C@H](n1nnc3ccccc31)[C@@H](c1ccc(Cl)cc1Cl)N2` (racemic), the Emax in experiment [1] worked out at 150%. Moreover, in experiment [3] (read-out: EC50), the EC50 was 740 nM.

On to `Cc1n[nH]c2c1[C@@H](O)[C@H](n1nnc3ccccc31)[C@@H](c1cccc(F)c1)N2` (racemic), for which the Emax in experiment [1] stood at 137%. Further, the EC50 in experiment [3] (read-out: EC50) was determined as 1200 nM.

Regarding `Cc1ccccc1[C@H]1Nc2[nH]nc(C)c2[C@@H](O)[C@@H]1n1nnc2ccccc21` (racemic), the Emax came to 158% in experiment [1] and 97% in experiment [4]. The IC50 in experiment [2] (read-out: IC50) was 4600 nM. In addition, the EC50 in experiment [3] (read-out: EC50) is 1900 nM.

Turning to `Cc1n[nH]c2c1[C@@H](O)[C@H](n1nnc3ccccc31)[C@@H](c1ccc(F)cc1)N2` (racemic), the Emax in experiment [1] stood at 61%. In addition, the EC50 in experiment [3] (read-out: EC50) is 2200 nM.

In experiment [1], `CC(C)(C)c1n[nH]c2c1[C@@H](O)[C@H](n1nnc3ccccc31)[C@@H](c1ccccc1Cl)N2` (racemic) gave an Emax of 132%. In experiment [3] (read-out: EC50), the EC50 turned out to be 7400 nM.

In experiment [1], `Cc1n[nH]c2c1[C@@H](O)[C@H](n1nnc3ccccc31)[C@@H](c1cc(Cl)ccc1Cl)N2` (racemic) gave an Emax of 145%. Moreover, the EC50 in experiment [3] (read-out: EC50) came out at 720 nM.

In experiment [1], `Cc1n[nH]c2c1[C@@H](O)[C@H](n1nnc3ccccc31)[C@@H](c1cccc(F)c1Cl)N2` (racemic) returned an Emax of 148%. The EC50 in experiment [3] (read-out: EC50) was 110 nM.

Consider `Cc1n[nH]c2c1[C@@H](O)[C@H](n1nnc3ccccc31)[C@@H](C1CC1)N2` (racemic), for which the Emax result in experiment [1] was “inactive”. Besides, the concentration for a half-maximal effect (EC50) entry in experiment [3] (fibroblast) is given as “Not Active”.

The compound `Cc1n[nH]c2c1[C@@H](O)[C@H](n1nnc3ccccc31)[C@@H](C1CCCC1)N2` (racemic) gave an Emax in experiment [1] of 150%. Besides, the EC50 in experiment [3] (read-out: EC50) was found to be 1900 nM.

On to `CCc1n[nH]c2c1[C@@H](O)[C@H](n1nnc3ccccc31)[C@@H](c1ccccc1Cl)N2` (racemic), for which the Emax in experiment [1] came to 191%. Besides, the EC50 in experiment [3] (read-out: EC50) is 480 nM.

On to `Cc1n[nH]c2c1[C@@H](O)[C@H](n1nnc3ccccc31)[C@@H](C)N2` (racemic), for which the Emax entry in experiment [1] was “inactive”. The EC50 entry in experiment [3] (fibroblast) is on record as “Not Active”.

Consider `Cc1n[nH]c2c1[C@@H](O)[C@H](n1nnc3ccccc31)[C@@H](c1ccccc1F)N2` (racemic), for which the Emax in experiment [1] was 137%; in experiment [4] it was 103%. In addition, the IC50 in experiment [2] (read-out: IC50) worked out at 1800 nM. In experiment [3] (read-out: EC50), the EC50 stood at 970 nM.

Compound `Cc1n[nH]c2c1[C@@H](O)[C@H](n1nnc3ccccc31)[C@@H](c1ccccc1)N2` (racemic) [listing 2 of 2 here] returned an Emax in experiment [1] of 173%.

For the compound `Cc1n[nH]c2c1[C@@H](O)[C@H](n1nnc3ccccc31)[C@@H](c1ccccc1Br)N2` (racemic) [listing 2 of 2 here], the Emax in experiment [1] turned out to be 164%.

`Cc1n[nH]c2c1[C@@H](O)[C@H](n1nnc3ccccc31)[C@@H](c1ccccc1Cl)N2` (racemic) [listing 2 of 2 here] gave an Emax in experiment [1] of 160%.

These data come from ChEMBL document CHEMBL5329195, “Identification of novel glucocerebrosidase chaperones by unexpected skeletal rearrangement reaction” (Bioorg Med Chem Lett, 2023).
